According to US20250186437A1, “CARBOLINE COMPOUNDS AND USE THEREOF” (PTC Therapeutics, Inc., priority 2021, published 2025):

System: MOLM-13 cells
Test: MOLM-13 Cell Proliferation Assay (indicator of DHODH inhibition)
Assay type: cell-based
Conditions: Homo sapiens, 72 Hours of culture, CellTiter-Glo, no uridine
Procedure, shortened: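 Low-passage MOLM-13 cells (10^4/well) in RPMI 1640 + 10% FBS exposed to compound (0.5% DMSO final) for 72 h at 37 °C, 5% CO2. Viability read by CellTiter-Glo luminescence; growth reflects de novo pyrimidine synthesis dependent on DHODH.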

Compound: CN(C)c1ncc(C2c3[nH]c4ccc(Cl)c(F)c4c3CCN2c2ncc(F)cn2)cn1 (stereo not shown) [Compound 201, 5-[6-chloro-5-fluoro-2-(5-fluoropyrimidin-2-yl)-2,3,4,9-tetrahydro-1H-pyrido[3,4-b]indol-1-yl]-N,N-dimethylpyrimidin-2-amine]
- IC50: 7.9 nM

Compound: Fc1c(Cl)ccc2[nH]c3c(c12)CCN(c1nccc(C(F)(F)F)n1)C3c1cccnc1 (stereo not shown) [Compound 202, 6-chloro-5-fluoro-1-(pyridin-3-yl)-2-[4-(trifluoromethyl)pyrimidin-2-yl]-2,3,4,9-tetrahydro-1H-pyrido[3,4-b]indole]
- IC50: 16.2 nM

Compound: Cc1ccnc(N2CCc3c([nH]c4ccc(Cl)cc34)C2c2ccc(C)c(F)c2F)n1 (stereo not shown) [Compound 203, 6-chloro-1-(2,3-difluoro-4-methylphenyl)-2-(4-methylpyrimidin-2-yl)-2,3,4,9-tetrahydro-1H-pyrido[3,4-b]indole]
- IC50: 1.6 nM

Compound: Cc1cc(C(F)(F)F)nc(N2CCc3c([nH]c4ccc(Cl)cc34)[C@H]2c2ccc(C)c(F)c2F)n1 [Compound 204, (1R)-6-chloro-1-(2,3-difluoro-4-methylphenyl)-2-[4-methyl-6-(trifluoromethyl)pyrimidin-2-yl]-2,3,4,9-tetrahydro-1H-pyrido[3,4-b]indole]
- IC50: 39.8 nM

Compound: Cc1cc(C)nc(N2CCc3c([nH]c4ccc(Cl)c(F)c34)C2c2ccc(C)c(F)c2F)n1 (stereo not shown) [Compound 205, 6-chloro-1-(2,3-difluoro-4-methylphenyl)-2-(4,6-dimethylpyrimidin-2-yl)-5-fluoro-2,3,4,9-tetrahydro-1H-pyrido[3,4-b]indole]
- IC50: 0.7 nM

Compound: Cc1cc(C(F)(F)F)nc(N2CCc3c([nH]c4ccc(Cl)c(F)c34)C2c2ccc(C)c(F)c2F)n1 (stereo not shown) [Compound 206, 6-chloro-1-(2,3-difluoro-4-methylphenyl)-5-fluoro-2-[4-methyl-6-(trifluoromethyl)pyrimidin-2-yl]-2,3,4,9-tetrahydro-1H-pyrido[3,4-b]indole]
- IC50: 0.4 nM

Compound: Cc1ccc(C2c3[nH]c4c(O)cc(Cl)cc4c3CCN2c2nccc(C(F)(F)F)n2)cc1 (stereo not shown) [Compound 207, 6-chloro-1-(4-methylphenyl)-2-[4-(trifluoromethyl)pyrimidin-2-yl]-2,3,4,9-tetrahydro-1H-pyrido[3,4-b]indol-8-ol]
- IC50: 2.2 nM

Compound: CN(C)c1ccc(C2c3[nH]c4cc(F)c(Cl)cc4c3CCN2c2nccc(C(F)(F)F)n2)c(F)n1 (stereo not shown) [Compound 208, 5-{6-chloro-7-fluoro-2-[4-(trifluoromethyl)pyrimidin-2-yl]-2,3,4,9-tetrahydro-1H-pyrido[3,4-b]indol-1-yl}-6-fluoro-N,N-dimethylpyridin-2-amine]
- IC50: 2.2 nM

Compound: Cc1ccc(C2c3[nH]c4ccc(Cl)c(F)c4c3CCN2c2nc(C(F)(F)F)cc(C(F)(F)F)n2)c(F)c1F (stereo not shown) [Compound 209, 2-[4,6-bis(trifluoromethyl)pyrimidin-2-yl]-6-chloro-1-(2,3-difluoro-4-methylphenyl)-5-fluoro-2,3,4,9-tetrahydro-1H-pyrido[3,4-b]indole]
- IC50: 0.8 nM

Compound: CN(C)c1ccc(C2c3[nH]c4ccc(Cl)c(F)c4c3CCN2c2nccc(C(F)(F)F)n2)c(F)n1 (stereo not shown) [Compound 210, 5-{6-chloro-5-fluoro-2-[4-(trifluoromethyl)pyrimidin-2-yl]-2,3,4,9-tetrahydro-1H-pyrido[3,4-b]indol-1-yl}-6-fluoro-N,N-dimethylpyridin-2-amine]
- IC50: 1.9 nM

Compound: Fc1cnc(N2CCc3c([nH]c4ccc(Cl)c(F)c34)C2c2cnc(N3CCOCC3)nc2)nc1 (stereo not shown) [Compound 211, 6-chloro-5-fluoro-2-(5-fluoropyrimidin-2-yl)-1-[2-(morpholin-4-yl)pyrimidin-5-yl]-2,3,4,9-tetrahydro-1H-pyrido[3,4-b]indole]
- IC50: 4.9 nM

Compound: Nc1ncc(C2c3[nH]c4ccc(Cl)c(F)c4c3CCN2c2ncc(F)cn2)cn1 (stereo not shown) [Compound 212, 5-[6-chloro-5-fluoro-2-(5-fluoropyrimidin-2-yl)-2,3,4,9-tetrahydro-1H-pyrido[3,4-b]indol-1-yl]pyrimidin-2-amine]
- IC50: 71 nM

Compound: Cc1ccc(C2c3[nH]c4ccc(Cl)c(F)c4c3CCN2c2ncc(F)c(C#N)n2)c(F)c1F (stereo not shown) [Compound 214, 2-[6-chloro-1-(2,3-difluoro-4-methylphenyl)-5-fluoro-1,3,4,9-tetrahydro-2H-pyrido[3,4-b]indol-2-yl]-5-fluoropyrimidine-4-carbonitrile]
- IC50: 0.5 nM

Compound: Cc1ccc(C2c3[nH]c4cc(F)c(Cl)cc4c3CCN2c2nc(C#N)cc(C#N)n2)c(F)c1F (stereo not shown) [Compound 216, 2-[6-chloro-1-(2,3-difluoro-4-methylphenyl)-7-fluoro-1,3,4,9-tetrahydro-2H-pyrido[3,4-b]indol-2-yl]pyrimidine-4,6-dicarbonitrile]
- IC50: 4.8 nM

Compound: Cc1ccc(C2c3[nH]c4ccc(Cl)c(F)c4c3CCN2c2ncc(F)c(C#N)n2)cc1 (stereo not shown) [Compound 217, 2-[6-chloro-5-fluoro-1-(4-methylphenyl)-1,3,4,9-tetrahydro-2H-pyrido[3,4-b]indol-2-yl]-5-fluoropyrimidine-4-carbonitrile]
- IC50: 2.2 nM

Compound: Oc1cc(C2c3[nH]c4ccc(Cl)cc4c3CCN2c2nccc(C(F)(F)F)n2)ccc1Cl (stereo not shown) [Compound 218, 2-chloro-5-{6-chloro-2-[4-(trifluoromethyl)pyrimidin-2-yl]-2,3,4,9-tetrahydro-1H-pyrido[3,4-b]indol-1-yl}phenol]
- IC50: 6.1 nM

Compound: Oc1cc(C2c3[nH]c4ccc(Cl)cc4c3CCN2c2ncc(F)cn2)ccc1Cl (stereo not shown) [Compound 219, 2-chloro-5-[6-chloro-2-(5-fluoropyrimidin-2-yl)-2,3,4,9-tetrahydro-1H-pyrido[3,4-b]indol-1-yl]phenol]
- IC50: 23.3 nM

Compound: Oc1cc(Cl)ccc1C1c2[nH]c3ccc(Cl)cc3c2CCN1c1ncc(F)cn1 (stereo not shown) [Compound 221, 5-chloro-2-[6-chloro-2-(5-fluoropyrimidin-2-yl)-2,3,4,9-tetrahydro-1H-pyrido[3,4-b]indol-1-yl]phenol]
- IC50: 4.2 nM

Compound: Oc1cc(Cl)ccc1C1c2[nH]c3ccc(Cl)cc3c2CCN1c1nccc(C(F)(F)F)n1 (stereo not shown) [Compound 222, 5-chloro-2-{6-chloro-2-[4-(trifluoromethyl)pyrimidin-2-yl]-2,3,4,9-tetrahydro-1H-pyrido[3,4-b]indol-1-yl}phenol]
- IC50: 3.5 nM

Compound: OCCOCc1ccc(C2c3[nH]c4cc(F)c(Cl)cc4c3CCN2c2nccc(C(F)(F)F)n2)cc1 (stereo not shown) [Compound 223, 2-[(4-{6-chloro-7-fluoro-2-[4-(trifluoromethyl)pyrimidin-2-yl]-2,3,4,9-tetrahydro-1H-pyrido[3,4-b]indol-1-yl}phenyl)methoxy]ethan-1-ol]
- IC50: 2 nM

Compound: N#Cc1ccnc(N2CCc3c([nH]c4cc(F)c(Cl)cc34)C2c2ccc(/C=C/CCO)cc2)n1 (stereo not shown) [Compound 224, 2-(6-chloro-7-fluoro-1-{4-[(1E)-4-hydroxybut-1-en-1-yl]phenyl}-1,3,4,9-tetrahydro-2H-pyrido[3,4-b]indol-2-yl)pyrimidine-4-carbonitrile]
- IC50: 3.9 nM

Compound: Nc1ncc(C2c3[nH]c4ccc(Cl)c(F)c4c3CCN2c2nccc(C(F)(F)F)n2)cn1 (stereo not shown) [Compound 225, 5-{6-chloro-5-fluoro-2-[4-(trifluoromethyl)pyrimidin-2-yl]-2,3,4,9-tetrahydro-1H-pyrido[3,4-b]indol-1-yl}pyrimidin-2-amine]
- IC50: 18.3 nM

Compound: Fc1ncccc1C1c2[nH]c3ccc(Cl)c(F)c3c2CCN1c1nccc(C(F)(F)F)n1 (stereo not shown) [Compound 226, 6-chloro-5-fluoro-1-(2-fluoropyridin-3-yl)-2-[4-(trifluoromethyl)pyrimidin-2-yl]-2,3,4,9-tetrahydro-1H-pyrido[3,4-b]indole]
- IC50: 25.4 nM

Compound: N#Cc1cc(C#N)nc(N2CCc3c([nH]c4cc(F)c(Cl)cc34)C2c2cccc(F)c2F)n1 (stereo not shown) [Compound 227, 2-[6-chloro-1-(2,3-difluorophenyl)-7-fluoro-1,3,4,9-tetrahydro-2H-pyrido[3,4-b]indol-2-yl]pyrimidine-4,6-dicarbonitrile]
- IC50: 16.4 nM

Compound: Cc1ccc(C2c3[nH]c4ccc(Cl)c(F)c4c3CCN2c2nc(C#N)cc(C#N)n2)cc1 (stereo not shown) [Compound 228, 2-[6-chloro-5-fluoro-1-(4-methylphenyl)-1,3,4,9-tetrahydro-2H-pyrido[3,4-b]indol-2-yl]pyrimidine-4,6-dicarbonitrile]
- IC50: 4.4 nM

Compound: Cc1ccc(C2c3[nH]c4ccc(Cl)c(F)c4c3CCN2c2nc(C#N)cc(C#N)n2)c(F)c1F (stereo not shown) [Compound 229, 2-[6-chloro-1-(2,3-difluoro-4-methylphenyl)-5-fluoro-1,3,4,9-tetrahydro-2H-pyrido[3,4-b]indol-2-yl]pyrimidine-4,6-dicarbonitrile]
- IC50: 1.9 nM

Compound: Fc1c(Cl)ccc2[nH]c3c(c12)CCN(c1nccc(C(F)(F)F)n1)C3c1cnc(-n2cncn2)nc1 (stereo not shown) [Compound 230, 6-chloro-5-fluoro-1-[2-(1H-1,2,4-triazol-1-yl)pyrimidin-5-yl]-2-[4-(trifluoromethyl)pyrimidin-2-yl]-2,3,4,9-tetrahydro-1H-pyrido[3,4-b]indole]
- IC50: 8.3 nM

Compound: Cc1cc(C#N)nc(N2CCc3c([nH]c4ccc(Cl)c(F)c34)C2c2ccc(C)c(F)c2F)n1 (stereo not shown) [Compound 232, 2-[6-chloro-1-(2,3-difluoro-4-methylphenyl)-5-fluoro-1,3,4,9-tetrahydro-2H-pyrido[3,4-b]indol-2-yl]-6-methylpyrimidine-4-carbonitrile]
- IC50: 0.5 nM

Compound: Cc1ccnc(N2CCc3c([nH]c4ccc(Cl)cc34)[C@@H]2c2ccc(C)c(F)c2F)n1 [Compound 234, (1S)-6-chloro-1-(2,3-difluoro-4-methylphenyl)-2-(4-methylpyrimidin-2-yl)-2,3,4,9-tetrahydro-1H-pyrido[3,4-b]indole]
- IC50: 0.8 nM

Compound: Cc1ccc(C2c3[nH]c4ccc(Cl)cc4c3CCN2c2ncc(F)c(C)n2)c(F)c1F (stereo not shown) [Compound 235, 6-chloro-1-(2,3-difluoro-4-methylphenyl)-2-(5-fluoro-4-methylpyrimidin-2-yl)-2,3,4,9-tetrahydro-1H-pyrido[3,4-b]indole]
- IC50: 1.5 nM

Compound: N#Cc1ccnc(N2CCc3c([nH]c4ccc(Cl)c(F)c34)C2c2ccc(/C=C/CCO)cc2)n1 (stereo not shown) [Compound 236, 2-(6-chloro-5-fluoro-1-{4-[(1E)-4-hydroxybut-1-en-1-yl]phenyl}-1,3,4,9-tetrahydro-2H-pyrido[3,4-b]indol-2-yl)pyrimidine-4-carbonitrile]
- IC50: 1.8 nM
